Experimental findings from patent US20240025883A1, “PYRIMIDIN-2-YL SULFONAMIDE DERIVATIVES” (Hoffmann-La Roche Inc., priority 2021, published 2024) are described below.

The assay concerns the target human GPR17 short isoform (Homo sapiens (Human), UniProt Q13304). The assay is described as follows: GPR17 cAMP assay (hGPR17 cAMP, antagonist mode against EC80 of MDL29,951). The class given is cell-based. Particulars: CHO-K1 cells stably expressing human GPR17 short isoform; EC80 of agonist MDL29,951; forskolin 15 μM. Put shortly:
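CHO-K1 cells stably expressing untagged human GPR17 short isoform, 10,000/well in HBSS/10 mM HEPES/0.1% BSA pH 7.4. Compounds added with EC80 MDL29,951 and 0.5 mM IBMX, then 15 μM forskolin 5 min later, 30 min at room temperature; cAMP by TR-FRET, normalized to reference antagonist, sigmoidal fit.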
(Changes in cAMP serve as a functional read-out for many G protein-coupled receptors.)

Sequence of human GPR17 short isoform (Q13304 29-367): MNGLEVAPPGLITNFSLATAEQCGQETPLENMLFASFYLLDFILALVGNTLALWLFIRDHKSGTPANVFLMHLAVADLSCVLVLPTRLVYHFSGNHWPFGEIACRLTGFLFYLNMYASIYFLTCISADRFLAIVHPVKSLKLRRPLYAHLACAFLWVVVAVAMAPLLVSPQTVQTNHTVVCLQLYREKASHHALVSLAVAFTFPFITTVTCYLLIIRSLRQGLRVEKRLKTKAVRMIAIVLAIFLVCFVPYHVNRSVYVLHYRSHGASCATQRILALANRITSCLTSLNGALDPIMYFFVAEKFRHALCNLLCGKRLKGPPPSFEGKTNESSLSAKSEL

Usually IC50 stands for the midpoint of a concentration-inhibition curve. Lower therefore signals greater potency. Compound `COc1nc(NS(=O)(=O)c2c[nH]c3c(F)c(Br)ccc23)nc(OC)c1OCC#N` [Example 244, 6-bromo-N-[5-(cyanomethoxy)-4,6-dimethoxy-pyrimidin-2-yl]-7-fluoro-1H-indole-3-sulfonamide] registered an IC50 of 16 nM. Take `COc1nc(NS(=O)(=O)c2c[nH]c3cc(Br)ccc23)nc(OC)c1CC(F)F` [Example 245, 6-bromo-N-[5-(2,2-difluoroethyl)-4,6-dimethoxy-pyrimidin-2-yl]-1H-indole-3-sulfonamide]: the IC50 stood at 27 nM. Consider `COc1nc(NS(=O)(=O)c2c[nH]c3cc(Br)ccc23)nc(OC)c1OCC#N` [Example 246, 6-bromo-N-[5-(cyanomethoxy)-4,6-dimethoxy-pyrimidin-2-yl]-1H-indole-3-sulfonamide], for which the IC50 came to 19 nM. `COc1nc(NS(=O)(=O)c2c[nH]c3c(F)c(C(F)F)ccc23)ncc1OCCF` [Example 247, 6-(difluoromethyl)-7-fluoro-N-[5-(2-fluoroethoxy)-4-methoxy-pyrimidin-2-yl]-1H-indole-3-sulfonamide]: the IC50 was determined as 42 nM. `COc1nc(NS(=O)(=O)c2c[nH]c3c(F)c(C(F)F)ccc23)ncc1CC(F)F` [Example 248, N-[5-(2,2-difluoroethyl)-4-methoxy-pyrimidin-2-yl]-6-(difluoromethyl)-7-fluoro-1H-indole-3-sulfonamide] had an IC50 of 367 nM. As for `COc1nc(NS(=O)(=O)c2c[nH]c3c(F)c(C(F)F)ccc23)nc(OC)c1OC(F)F` [Example 249, N-[5-(difluoromethoxy)-4,6-dimethoxy-pyrimidin-2-yl]-6-(difluoromethyl)-7-fluoro-1H-indole-3-sulfonamide], the IC50 was found to be 36 nM.

Consider `COc1nc(NS(=O)(=O)c2c[nH]c3c(F)c(C(F)F)ccc23)nc(OC)c1OCC(F)F` [Example 250, N-[5-(2,2-difluoroethoxy)-4,6-dimethoxy-pyrimidin-2-yl]-6-(difluoromethyl)-7-fluoro-1H-indole-3-sulfonamide], for which the IC50 is 35 nM. `COc1nc(NS(=O)(=O)c2c[nH]c3c(F)c(C(F)F)ccc23)nc(OC)c1CC(F)F` [Example 251, N-[5-(2,2-difluoroethyl)-4,6-dimethoxy-pyrimidin-2-yl]-6-(difluoromethyl)-7-fluoro-1H-indole-3-sulfonamide] returned an IC50 of 22 nM. Take `COc1nc(NS(=O)(=O)c2c[nH]c3c(F)c(C(F)F)ccc23)nc(OC)c1CCC#N` [Example 252, N-[5-(2-cyanoethyl)-4,6-dimethoxy-pyrimidin-2-yl]-6-(difluoromethyl)-7-fluoro-1H-indole-3-sulfonamide]: the IC50 is 14 nM.

For `COc1nc(NS(=O)(=O)c2c[nH]c3c(F)c(C(F)F)ccc23)nc(OC)c1OCC#N` [Example 253, N-[5-(cyanomethoxy)-4,6-dimethoxy-pyrimidin-2-yl]-6-(difluoromethyl)-7-fluoro-1H-indole-3-sulfonamide], the IC50 was 20 nM.

With `COc1nc(NS(=O)(=O)c2c[nH]c3cc(C4CC4)ccc23)ncc1CC(F)F` [Example 254, 6-cyclopropyl-N-[5-(2,2-difluoroethyl)-4-methoxy-pyrimidin-2-yl]-1H-indole-3-sulfonamide], the IC50 worked out at 75 nM. With `COc1nc(NS(=O)(=O)c2c[nH]c3c(Br)c(Cl)ccc23)ncc1CCC#N` [Example 255, 7-bromo-6-chloro-N-[5-(2-cyanoethyl)-4-methoxy-pyrimidin-2-yl]-1H-indole-3-sulfonamide], the IC50 was 38 nM. `COc1nc(NS(=O)(=O)c2c[nH]c3cc(F)ccc23)nc(OC)c1OC(F)F` [Example 256, N-[5-(difluoromethoxy)-4,6-dimethoxy-pyrimidin-2-yl]-6-fluoro-1H-indole-3-sulfonamide] registered an IC50 of 215 nM. Compound `COc1nc(NS(=O)(=O)c2c[nH]c3cc(F)ccc23)nc(OC)c1OCC(F)F` [Example 257, N-[5-(2,2-difluoroethoxy)-4,6-dimethoxy-pyrimidin-2-yl]-6-fluoro-1H-indole-3-sulfonamide] gave an IC50 of 84 nM. For the compound `COc1nc(NS(=O)(=O)c2c[nH]c3cc(F)ccc23)nc(OC)c1CC(F)F` [Example 258, N-[5-(2,2-difluoroethyl)-4,6-dimethoxy-pyrimidin-2-yl]-6-fluoro-1H-indole-3-sulfonamide], the IC50 turned out to be 37 nM. As to `COc1nc(NS(=O)(=O)c2c[nH]c3cc(F)ccc23)nc(OC)c1CCC#N` [Example 259, N-[5-(2-cyanoethyl)-4,6-dimethoxy-pyrimidin-2-yl]-6-fluoro-1H-indole-3-sulfonamide], the IC50 amounted to 25 nM. In turn, `COc1nc(NS(=O)(=O)c2c[nH]c3cc(Cl)ccc23)ncc1CC(C)(F)F` [Example 260, 6-chloro-N-[5-(2,2-difluoropropyl)-4-methoxy-pyrimidin-2-yl]-1H-indole-3-sulfonamide] displayed an IC50 of 488 nM. `COc1nc(NS(=O)(=O)c2c[nH]c3cc(Cl)ccc23)ncc1CC(F)(F)C(F)F` [Example 261, 6-chloro-N-[4-methoxy-5-(2,2,3,3-tetrafluoropropyl)pyrimidin-2-yl]-1H-indole-3-sulfonamide] had an IC50 of 91 nM. Turning to `COc1nc(NS(=O)(=O)c2c[nH]c3cc(Cl)ccc23)ncc1COC(F)F` [Example 262, 6-chloro-N-[5-(difluoromethoxymethyl)-4-methoxy-pyrimidin-2-yl]-1H-indole-3-sulfonamide], the IC50 amounted to 40 nM. Consider `COc1nc(NS(=O)(=O)c2c[nH]c3cc(Cl)ccc23)nc(OC)c1OCC1COC1` [Example 263, 6-chloro-N-[4,6-dimethoxy-5-(oxetan-3-ylmethoxy)pyrimidin-2-yl]-1H-indole-3-sulfonamide], for which the IC50 amounted to 2060 nM. The result for `COc1nc(NS(=O)(=O)c2c[nH]c3cc(Cl)ccc23)nc(OC)c1CC(F)CF` (centres unmarked) [Example 264, 6-chloro-N-[5-(2,3-difluoropropyl)-4,6-dimethoxy-pyrimidin-2-yl]-1H-indole-3-sulfonamide] reads 23 nM.

For the compound `COc1nc(NS(=O)(=O)c2c[nH]c3cc(Cl)ccc23)nc(OC)c1OCC#N` [Example 265, 6-chloro-N-[5-(cyanomethoxy)-4,6-dimethoxy-pyrimidin-2-yl]-1H-indole-3-sulfonamide], the IC50 was 14 nM.

Consider `COc1nc(NS(=O)(=O)c2c[nH]c3cc(Cl)ccc23)ncc1CC(F)C(F)F` (centres unmarked) [Example 266, 6-chloro-N-[4-methoxy-5-(2,3,3-trifluoropropyl)pyrimidin-2-yl]-1H-indole-3-sulfonamide], for which the IC50 turned out to be 90 nM. In the case of `COc1nc(NS(=O)(=O)c2c[nH]c3cc(Cl)ccc23)ncc1OCC#N` [Example 267, 6-chloro-N-[5-(cyanomethoxy)-4-methoxy-pyrimidin-2-yl]-1H-indole-3-sulfonamide], the IC50 came out at 49 nM. Consider `COc1nc(NS(=O)(=O)c2csc3cc(Br)ccc23)ncc1OC(F)F` [Example 268, 6-bromo-N-[5-(difluoromethoxy)-4-methoxy-pyrimidin-2-yl]benzothiophene-3-Sulfonamide], for which the IC50 stood at 165 nM. `COc1nc(NS(=O)(=O)c2csc3nc(Br)ccc23)nc(OC)c1OC(F)F` [Example 269, 6-bromo-N-[5-(difluoromethoxy)-4,6-dimethoxy-pyrimidin-2-yl]thieno[2,3-b]pyridine-3-Sulfonamide] had an IC50 of 138 nM.
